Reference: ChEMBL document CHEMBL3769309, “Design, synthesis and biological evaluation of bisthiazole-based trifluoromethyl ketone derivatives as potent HDAC inhibitors with improved cellular efficacy” (Eur J Med Chem, 2016)
Each block holds one compound with its values, some of them ahead of it.

Columns and labels:
Histone deacetylase 4 = Histone deacetylase 4 (Homo sapiens, UniProt P56524); experiment: Inhibition of full length His6-tagged GST-fused recombinant human HDAC4 expressed in High5 insect cells using Ac-Lys-Tyr-Lys (e-acetyl)-AMC as substrate after 24 hrs by fluorescence assay; type: cell-based
Histone deacetylase 4, sequence (P56524 whole entry, the tested form may be a part): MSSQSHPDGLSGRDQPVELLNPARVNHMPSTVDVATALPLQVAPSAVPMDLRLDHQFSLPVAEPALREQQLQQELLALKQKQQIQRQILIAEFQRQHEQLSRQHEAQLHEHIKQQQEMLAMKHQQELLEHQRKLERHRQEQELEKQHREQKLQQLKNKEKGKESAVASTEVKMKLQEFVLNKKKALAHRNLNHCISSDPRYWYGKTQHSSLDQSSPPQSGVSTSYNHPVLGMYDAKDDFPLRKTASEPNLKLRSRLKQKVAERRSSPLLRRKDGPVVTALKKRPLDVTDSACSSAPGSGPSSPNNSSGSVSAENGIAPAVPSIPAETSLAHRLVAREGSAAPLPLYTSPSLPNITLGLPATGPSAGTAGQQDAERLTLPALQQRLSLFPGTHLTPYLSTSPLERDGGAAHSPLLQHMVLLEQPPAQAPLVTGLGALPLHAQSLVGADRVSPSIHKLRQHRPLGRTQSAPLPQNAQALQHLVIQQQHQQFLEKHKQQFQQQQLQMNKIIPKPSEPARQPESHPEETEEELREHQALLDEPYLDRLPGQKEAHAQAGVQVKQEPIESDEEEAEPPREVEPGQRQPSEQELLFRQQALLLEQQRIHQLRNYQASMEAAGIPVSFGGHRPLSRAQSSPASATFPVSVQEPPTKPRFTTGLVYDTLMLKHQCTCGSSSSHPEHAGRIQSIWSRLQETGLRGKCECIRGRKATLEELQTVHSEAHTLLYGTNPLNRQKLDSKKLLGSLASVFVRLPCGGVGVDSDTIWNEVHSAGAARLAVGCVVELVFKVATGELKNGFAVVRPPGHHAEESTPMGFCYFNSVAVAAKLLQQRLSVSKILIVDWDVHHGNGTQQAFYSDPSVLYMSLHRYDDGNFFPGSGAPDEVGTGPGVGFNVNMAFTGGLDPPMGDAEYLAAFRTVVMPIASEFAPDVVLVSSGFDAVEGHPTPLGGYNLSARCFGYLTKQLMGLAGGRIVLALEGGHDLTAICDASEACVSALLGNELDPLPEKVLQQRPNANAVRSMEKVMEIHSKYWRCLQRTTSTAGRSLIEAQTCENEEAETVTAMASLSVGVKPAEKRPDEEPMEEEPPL

[1] = Antiproliferative activity against human MM1S cells after 72 hrs by CellTiter 96 aqueous non-radioactive cell proliferation assay; type: functional, cell-based; conditions: MM1.S
Histone deacetylase 3 = Histone deacetylase 3 (Homo sapiens, UniProt O15379); experiment: Inhibition of full length His6-tagged GST-fused recombinant human HDAC3 expressed in High5 insect cells using Ac-Lys-Tyr-Lys (e-acetyl)-AMC as substrate after 24 hrs by fluorescence assay; type: cell-based
Histone deacetylase 3, sequence (O15379 whole entry, the tested form may be a part): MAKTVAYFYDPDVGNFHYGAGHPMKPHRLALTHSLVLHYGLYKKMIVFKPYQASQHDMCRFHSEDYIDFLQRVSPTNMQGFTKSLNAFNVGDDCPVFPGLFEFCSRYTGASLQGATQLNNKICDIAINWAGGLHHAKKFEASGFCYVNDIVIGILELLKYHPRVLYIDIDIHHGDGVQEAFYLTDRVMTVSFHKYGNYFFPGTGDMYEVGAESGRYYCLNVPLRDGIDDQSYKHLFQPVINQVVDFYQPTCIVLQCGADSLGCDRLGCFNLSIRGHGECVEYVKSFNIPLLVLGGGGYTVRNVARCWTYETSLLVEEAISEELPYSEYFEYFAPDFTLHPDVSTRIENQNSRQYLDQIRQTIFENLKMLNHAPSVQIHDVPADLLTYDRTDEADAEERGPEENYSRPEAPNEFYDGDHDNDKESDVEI

[2] = biological target: T1, Protein deacetylase HDAC6 (Homo sapiens, UniProt Q9UBN7); experiment: Inhibition of full length His6-tagged GST-fused recombinant human HDAC6 expressed in High5 insect cells using Boc-Lys (e-acetyl)-AMC as substrate after 3 hrs by fluorescence assay; type: cell-based
T1 sequence (Q9UBN7 whole entry): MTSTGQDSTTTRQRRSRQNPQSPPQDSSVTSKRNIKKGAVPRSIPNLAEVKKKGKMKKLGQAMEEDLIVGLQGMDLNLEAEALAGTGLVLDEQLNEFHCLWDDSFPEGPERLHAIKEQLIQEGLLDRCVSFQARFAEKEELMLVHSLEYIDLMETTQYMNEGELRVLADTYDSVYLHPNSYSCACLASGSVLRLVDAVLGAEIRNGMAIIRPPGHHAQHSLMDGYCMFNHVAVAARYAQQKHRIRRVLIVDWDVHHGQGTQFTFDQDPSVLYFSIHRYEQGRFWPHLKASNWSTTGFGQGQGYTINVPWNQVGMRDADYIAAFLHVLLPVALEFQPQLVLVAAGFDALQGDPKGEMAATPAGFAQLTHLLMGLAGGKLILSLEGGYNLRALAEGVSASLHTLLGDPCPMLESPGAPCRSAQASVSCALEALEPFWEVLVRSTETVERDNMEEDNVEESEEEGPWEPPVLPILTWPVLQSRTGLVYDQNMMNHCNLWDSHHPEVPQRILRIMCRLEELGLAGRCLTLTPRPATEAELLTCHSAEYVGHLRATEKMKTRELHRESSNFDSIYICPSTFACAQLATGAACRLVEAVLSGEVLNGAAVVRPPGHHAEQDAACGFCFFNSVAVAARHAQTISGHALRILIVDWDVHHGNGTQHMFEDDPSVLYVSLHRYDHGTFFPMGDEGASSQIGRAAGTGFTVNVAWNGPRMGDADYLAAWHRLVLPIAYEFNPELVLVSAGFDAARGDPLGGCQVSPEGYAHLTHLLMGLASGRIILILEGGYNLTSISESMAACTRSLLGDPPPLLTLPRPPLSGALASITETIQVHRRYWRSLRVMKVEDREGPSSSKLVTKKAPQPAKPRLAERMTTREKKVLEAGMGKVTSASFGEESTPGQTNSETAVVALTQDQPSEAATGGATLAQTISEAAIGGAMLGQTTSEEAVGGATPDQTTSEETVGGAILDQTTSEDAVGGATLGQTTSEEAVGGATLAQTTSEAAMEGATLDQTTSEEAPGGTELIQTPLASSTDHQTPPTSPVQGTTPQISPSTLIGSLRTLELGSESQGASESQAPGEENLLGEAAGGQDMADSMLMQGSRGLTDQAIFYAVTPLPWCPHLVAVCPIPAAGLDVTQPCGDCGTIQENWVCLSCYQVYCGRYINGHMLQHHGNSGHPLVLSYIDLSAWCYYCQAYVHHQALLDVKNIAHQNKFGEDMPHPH

Histone deacetylase 1 = Histone deacetylase 1 (Homo sapiens, UniProt Q13547); experiment: Inhibition of full length His6-tagged GST-fused recombinant human HDAC1 expressed in High5 insect cells using Ac-Lys-Tyr-Lys (e-acetyl)-AMC as substrate after 24 hrs by fluorescence assay; type: cell-based
Histone deacetylase 1, sequence (Q13547 whole entry, the tested form may be a part): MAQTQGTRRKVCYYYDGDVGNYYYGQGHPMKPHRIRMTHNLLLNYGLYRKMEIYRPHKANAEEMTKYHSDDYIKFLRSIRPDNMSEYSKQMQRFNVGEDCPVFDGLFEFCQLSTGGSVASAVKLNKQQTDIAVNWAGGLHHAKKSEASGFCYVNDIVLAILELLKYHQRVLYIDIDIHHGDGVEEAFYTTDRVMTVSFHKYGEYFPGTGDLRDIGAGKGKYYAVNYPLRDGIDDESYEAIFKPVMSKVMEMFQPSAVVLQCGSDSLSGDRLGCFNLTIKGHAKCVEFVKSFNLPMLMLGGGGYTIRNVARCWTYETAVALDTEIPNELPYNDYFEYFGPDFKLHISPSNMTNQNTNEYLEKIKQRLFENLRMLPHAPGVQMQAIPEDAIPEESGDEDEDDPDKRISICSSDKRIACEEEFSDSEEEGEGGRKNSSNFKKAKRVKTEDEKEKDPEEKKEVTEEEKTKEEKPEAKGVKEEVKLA

RPMI-8226 [3] = experiment: Induction of apoptosis in human RPMI8226 cells assessed as increase in cleaved PARP level after 24 hrs by Western immunoblotting method; type: functional, cell-based
RPMI-8226 [4] = experiment: Induction of apoptosis in human RPMI8226 cells assessed as viable cells at 0.3 uM after 48 hrs by annexin V-FITC/propidium iodide staining-based flow cytometry (reference value: 87.2%); type: functional; conditions: RPMI-8226, 48 h, read-out: Activity
RPMI-8226 [5] = experiment: Induction of apoptosis in human RPMI8226 cells assessed as early apoptotic cells at 0.3 uM after 48 hrs by annexin V-FITC/propidium iodide staining-based flow cytometry (reference value: 6.3%); type: functional
RPMI-8226 [6] = experiment: Induction of apoptosis in human RPMI8226 cells assessed as dead cells at 0.3 uM after 48 hrs by annexin V-FITC/propidium iodide staining-based flow cytometry (reference value: 2%); type: functional
RPMI-8226 [7] = experiment: Induction of apoptosis in human RPMI8226 cells assessed as dead cells at 1 uM after 48 hrs by annexin V-FITC/propidium iodide staining-based flow cytometry (reference value: 2%); type: functional
[8] = Antiproliferative activity against human Mino cells after 72 hrs by CellTiter 96 aqueous non-radioactive cell proliferation assay; type: functional, cell-based
[9] = Antiproliferative activity against human RPMI8226 cells after 72 hrs by CellTiter 96 aqueous non-radioactive cell proliferation assay; type: functional, cell-based; conditions: RPMI-8226, 72 h
RPMI-8226 [10] = experiment: Induction of apoptosis in human RPMI8226 cells assessed as early apoptotic cells at 1 uM after 48 hrs by annexin V-FITC/propidium iodide staining-based flow cytometry (reference value: 6.3%); type: functional
[11] = Antiproliferative activity against human JeKo1 cells after 72 hrs by CellTiter 96 aqueous non-radioactive cell proliferation assay; type: functional, cell-based; conditions: JeKo-1, 72 h
RPMI-8226 [12] = experiment: cells; type: functional; conditions: Homo sapiens, RPMI-8226, 48 h
RPMI-8226 [13] = experiment: Induction of apoptosis in human RPMI8226 cells assessed as late apoptotic cells at 1 uM after 48 hrs by annexin V-FITC/propidium iodide staining-based flow cytometry (reference value: 4.4%); type: functional
RPMI-8226 [14] = experiment: Induction of apoptosis in human RPMI8226 cells assessed as viable cells at 1 uM after 48 hrs by annexin V-FITC/propidium iodide staining-based flow cytometry (reference value: 87.2%); type: functional; conditions: RPMI-8226, 48 h, read-out: Activity
RPMI-8226 [15] = experiment: Induction of apoptosis in human RPMI8226 cells assessed as late apoptotic cells at 0.3 uM after 48 hrs by annexin V-FITC/propidium iodide staining-based flow cytometry (reference value: 4.4%); type: functional
LP-1 = experiment: Antiproliferative activity against human LP-1 cells after 72 hrs by CellTiter 96 aqueous non-radioactive cell proliferation assay; type: functional, cell-based; conditions: LP-1, 72 h
[16] = Antiproliferative activity against human NCI-H929 cells after 72 hrs by CellTiter 96 aqueous non-radioactive cell proliferation assay; type: functional, cell-based; conditions: NCI-H929, 72 h

IC50 (Histone deacetylase 4): > 10000 nM
SMILES: O=C(NO)NCCCCNC(=O)c1nc(-c2nccs2)sc1C1CC1

IC50 (Histone deacetylase 4): > 10000 nM
SMILES: O=C(NCCCC(=O)C(F)(F)F)c1nc(-c2nccs2)sc1C1CC1

IC50 (Histone deacetylase 4): 2090 nM
SMILES: Nc1ccccc1NC(=O)CCCCNC(=O)c1nc(-c2nccs2)sc1C1CC1

SMILES: O=C(CCCCCCC(=O)Nc1ccccc1)NO [VORINOSTAT]
IC50 [1]: 820 nM

IC50 (Histone deacetylase 3): 8860 nM
IC50 (Histone deacetylase 4): > 10000 nM
IC50 [2]: > 10000 nM
IC50 (Histone deacetylase 1): > 10000 nM
SMILES: O=C(NCCCCC(O)C(F)(F)F)c1nc(-c2nccs2)sc1C1CC1 (stereo not drawn)

IC50 (Histone deacetylase 3): 65.1 nM
IC50 (Histone deacetylase 4): 68.2 nM
IC50 [2]: 58.4 nM
IC50 (Histone deacetylase 1): 66.1 nM
SMILES: O=C(NCCCCC(=O)C(F)(F)F)c1nc(-c2nccs2)sc1Cc1ccccc1

IC50 (Histone deacetylase 4): 23.4 nM
SMILES: O=C(NCCCCC(=O)C(F)(F)F)c1nc(-c2nc3c(s2)CCCC3)sc1C1CC1

IC50 (Histone deacetylase 3): > 10000 nM
IC50 (Histone deacetylase 4): > 10000 nM
IC50 [2]: > 10000 nM
IC50 (Histone deacetylase 1): > 10000 nM
SMILES: O=C(NCCCCCNC(=O)c1nc(-c2nccs2)sc1C1CC1)c1cccc(-c2noc(C(F)(F)F)n2)c1

IC50 (Histone deacetylase 4): 133 nM
SMILES: O=C(NCCCCCC(=O)C(F)(F)F)c1nc(-c2nccs2)sc1C1CC1

SMILES: O=C(NCCCCC(=O)C(F)(F)F)c1nc(-c2nccs2)sc1C1CC1
Activity (RPMI-8226 [3]): Dose-dependent effect
viability at 0.3 µM (RPMI-8226 [4]): 57.8%
Activity (RPMI-8226 [5]): 15.4%
Activity (RPMI-8226 [6]): 2.8%
Activity (RPMI-8226 [7]): 7.7%
IC50 [8]: 120 nM
IC50 [9]: 85 nM
Activity (RPMI-8226 [10]): 13.4%
IC50 (Histone deacetylase 4): 31.5 nM
IC50 [11]: 64 nM
viability at 3 µM (RPMI-8226 [12]): 21.1%
Activity (RPMI-8226 [13]): 50.7%
viability at 1 µM (RPMI-8226 [14]): 28.2%
Activity (RPMI-8226 [15]): 23.9%
IC50 [1]: 390 nM
IC50 (LP-1): 370 nM
IC50 [16]: 1230 nM

IC50 (Histone deacetylase 4): 32 nM
IC50 [2]: 23.4 nM
SMILES: Cc1cnc(-c2nc(C(=O)NCCCCC(=O)C(F)(F)F)c(C3CC3)s2)s1

IC50 (Histone deacetylase 4): 120 nM
SMILES: CC(C)Cc1sc(-c2nccs2)nc1C(=O)NCCCCC(=O)C(F)(F)F
